According to patent publication US6071884A, “Pharmaceutical compositions and therapeutic methods” (Kirin Beer Kabushiki Kaisha, priority 1992, dated 2000):

What was measured:
[1] = Life-span-increasing effect on irradiation of a lethal dose of radiation; format: in vivo, mouse (BDF1); conditions: 10 mice/group, 9 Gy X-ray, 0.1 mg/kg i.v. days 0, 4, 8
Protocol: Pharmacological Test 4: Life-Span-Increasing Effect on Irradiation of a Lethal Dose of Radiation
An experiment was carried out by using 6 week old female BDF1 mice purchased from Japan SLC Co., Ltd., with 10 mice made one group.
The entire bodies of the entire body of the mice were irradiated with 9 Gy of X-rays by using a Hitachi X-ray irradiator (MBR-1520R), and the day on which the X-ray was irradiated was referred to as "day 0".

blood platelets [2] = assay: Thrombocytopenia-inhibiting effect in X-ray-irradiated mice; format: in vivo, mouse (BDF1); conditions: 10 days after 5 Gy X-ray; 0.1 mg/kg i.v. within 2 h; mean ± SD; vehicle per series 10.3, 6.8, 6.7; non-treatment 68.2, 96.9, 73.0
Protocol: Pharmacological Test 5: Thromboclytopenia-Inhibiting Effect
The thrombocytopenia-inhibiting effect of each sample upon an X-ray-irradiated mouser which is one of models with a decreased number of blood platelets was examined.
An experiment was carried out by using 6 week old female BDF1 mice purchased from Japan SLC Co., Ltd., with 6 mice made one group.
5 Gy of X ray was irradiated to the entire body of the mice by a Hitachi X-ray irradiator CMBR-1520R). Within 2 hours after the irradiation, each sample was administered to the caudal vein of the mice at an amount of 0.1 mg/kg.
(§1) After 10 days, blood was collected from the fundus vein of the mice, and the number of blood platelets was measured by a sequential multi-channel hemocytometer E-2500/cs (Toa Iyo Denshi Kabushiki Kaisha). The number of blood platelets of the non-treated group, that of the medium-administered group, and that of the sample-administered group are shown in Table 5.

[3] = system: marrow cells (mononuclear cell fraction); assay: Proliferation-stimulating effect on marrow cell of mouse (3H-TdR uptake); format: cell-based, mouse (BALB/c); conditions: percentage of control, 72 h; for activity at 0.1 µg/mL: 10^-1 μg/ml; for activity at 0.01 µg/mL: 10^-2 μg/ml; for activity at 0.001 µg/mL: 10^-3 μg/ml
Protocol: Pharmacological Test 1: Proliferation-Stimulating Effect on Marrow Cell of Mouse
Marrow cells were prepared from the thigh bone of a 7 week old female BALB/c mouse purchased from Japan SLC Co., Ltd., and a mononuclear cell fraction (MNF) obtained by fractionation using a lympholyte-M (Cedar Lane, Ontario, Canada) was used in the following experiment.
The concentration of the MNF was adjusted to 1.5×10^6 cells/ml by using 10% FCS RPMI 1640 (Nissui Pharmaceutical Co., Ltd., Tokyo, Japan) as a culture medium. 10 μl/well of a sample with a predetermined concentration and 100 μl/well of the above-prepared MNF were placed on a round-bottomed 96 well plate, and incubated under the conditions of 37° C. and 5% CO2 for 72 hours. Thereafter, 0.5 μCi/well of ^3 H-thymidine (^3 H-TDR) was added. After 8 hour incubation, the cells were harvested, and the amount of the 3H-TdR taken in the nuclei was measured by a liquid scintillation counter.

blood platelets [4] = assay: Blood-platelet-increasing effect upon normal mouse; format: in vivo, mouse (BDF1); conditions: normal mice; 6 days after 0.1 mg/kg i.v.; mean ± SD; vehicle per series 58.2, 63.0, 71.1
Protocol: Pharmacological Test 6: Blood-Platelet-Increasing Effect upon Mouse
An experiment was carried out by using 6 week old female BDF1 mice purchased from Japan SLC Co., Ltd., with 5 mice made one group.
as §1, with “Each sample was administered to the caudal vein of the mice at a dose of 0.1 mg/kg. After” for “After”, “6” for “10”, “vehicle-administered” for “non-treated group, that of the medium-administered”, “6.” for “5.”

[5] = day 10, controls per series 10, 10, 10, 10, 10, 8
[6] = day 15, controls per series 8, 9, 5, 5, 7, 1
[7] = day 20, controls per series 4, 5, 1, 2, 3, 0
[8] = day 25, controls per series 3, 3, 0, 0, 2, 0
[9] = day 30, controls per series 1, 1, 0, 0, 0, 0

SMILES	Number of Surviving Mice [1, 5]	Number of Surviving Mice [1, 6]	Number of Surviving Mice [1, 7]	Number of Surviving Mice [1, 8]	Number of Surviving Mice [1, 9]	Number of Surviving Mice ([1]; day 35, all controls 0)	Number of Surviving Mice ([1]; day 40, all controls 0)	Number of Blood Platelets (blood platelets [2])	activity at 0.1 µg/mL [3]	activity at 0.01 µg/mL [3]	activity at 0.001 µg/mL [3]	Number of Blood Platelets (blood platelets [4])	activity at 1 µg/mL ([3]; 10^0 μg/ml)
CCCCCCCCCCCCCCCCCCCCCCCC(=O)N[C@@H](CO[C@H]1O[C@H](CO)[C@H](O)[C@H](O)[C@H]1O)[C@H](O)[C@H](O)CCCCCCC [Compound 19, (2S,3S,4R)-1-(α-D-galactopyranosyloxy)-2-tetracosanoylamino-3,4-undecanediol]	10 mice	10 mice	10 mice	10 mice	10 mice	10 mice	10 mice	23.4 ± 4.2 × 10^4 /μl	499%	207%	173%	106.4 ± 12.7 × 10^4 /μl	
CCCCCCCCCCCCC/C=C/[C@@H](O)[C@H](CO[C@H]1O[C@H](CO)[C@H](O)[C@H](O)[C@H]1O)NC(=O)CCCCCCCCCCCCC [Compound 32, (2S,3R,4E)-1-(α-D-galactopyranosyloxy)-2-tetradecanoylamino-4-octadecen-3-ol]	10 mice	9 mice	4 mice	3 mice	3 mice	3 mice	3 mice	16.4 ± 3.2 × 10^4 /μl	405%	151%	115%	88.3 ± 4.2 × 10^4 /μl	871%
CCCCCCCCCCCCCCC[C@@H](O)[C@H](CO[C@H]1O[C@H](CO)[C@H](O)[C@H](O)[C@H]1O)NC(C)=O [Compound 8, (2S,3R)-2-acetamino-1-(α-D-galactopyranosyloxy)-3-octadecanol]	10 mice	5 mice	1 mice	1 mice	1 mice	1 mice	1 mice	8.1 ± 2.6 × 10^4 /μl	232%	81%	129%	96.6 ± 3.2 × 10^4 /μl	
CCCCCCCCCCCCCCCCCCCCCCCC(=O)N[C@@H](CO[C@H]1O[C@H](CO)[C@H](O)[C@H](O)[C@H]1O)[C@H](O)CCCCCCCCCCC [Compound 9, (2S,3R)-1-(α-D-galactopyranosyloxy)-2-tetracosanoylamino-3-tetradecanol]	10 mice	8 mice	6 mice	6 mice	6 mice	6 mice	6 mice	17.6 ± 3.4 × 10^4 /μl	547%	103%	134%	100.5 ± 8.3 × 10^4 /μl	
